In article PMC5653858, “A single extracellular amino acid in Free Fatty Acid Receptor 2 defines antagonist species selectivity and G protein selection bias” (Scientific Reports, 2017):
Positions count from the first letter of the chain named.

Tests used:
[1] = target: T1, Lys^65Arg hFFA2 (Homo sapiens, UniProt O15552, K65R); experiment: inositol monophosphate accumulation assay, Lys65Arg hFFA2; assay type: cell-based
T1 construct: NanoLuc Luciferase (N); eYFP; expressed in transfected cells; host or cells: Flp-In T-REx HEK293, doxycycline-induced
T1 sequence (O15552 1-330 K65R): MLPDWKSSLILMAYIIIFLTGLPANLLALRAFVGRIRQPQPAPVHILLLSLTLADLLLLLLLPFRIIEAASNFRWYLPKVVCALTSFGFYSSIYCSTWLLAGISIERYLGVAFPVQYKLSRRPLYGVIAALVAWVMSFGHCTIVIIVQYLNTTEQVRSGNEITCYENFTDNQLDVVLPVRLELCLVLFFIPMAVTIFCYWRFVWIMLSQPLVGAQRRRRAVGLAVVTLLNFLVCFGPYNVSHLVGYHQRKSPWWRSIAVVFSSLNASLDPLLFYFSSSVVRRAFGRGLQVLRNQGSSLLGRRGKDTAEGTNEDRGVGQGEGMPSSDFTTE
Protocol: (§1) All cAMP and inositol monophosphate experiments were performed using Flp-In T-REx HEK293 cells induced to express the receptor of interest. Experiments were carried out using respective homogenous time-resolved FRET-based detection kits (CisBio Bioassays; CisBio, Codolet, France) according to the manufacturer’s protocol. For the cAMP inhibition assay cells were plated at 2000 cells/well in low-volume 384-well plates. The ability of agonists to inhibit 1 μM forskolin-induced cAMP production was assessed following a co-incubation for 30 min with agonist compounds. For the inositol monophosphate accumulation assay cells were plated at 7500 cells/well in low-volume 384-well plates and incubated for 2 h at 37 °C with test compounds. To assess ability of antagonists to inhibit agonist responses, cells were pre-incubated with antagonist compounds for 30 min at 37 °C prior to addition of an EC80 concentration of agonist. Respective reactions were stopped according to the manufacturer’s instructions and the output was measured by with a PHERAstar FS plate reader (BMGLabtech, Aylesbury, UK).

[2] = target: T2, Lys^65Glu hFFA2 (Homo sapiens, UniProt O15552, K65E); experiment: inositol monophosphate accumulation assay, Lys65Glu hFFA2; assay type: cell-based
T2 construct: NanoLuc Luciferase (N); eYFP; expressed in transfected cells; host or cells: Flp-In T-REx HEK293, doxycycline-induced
T2 sequence (O15552 1-330 K65E): T1 sequence (O15552 1-330 K65R) with R65E
Protocol: as §1

[3] = target: T3, mFFA2 (Mus musculus, UniProt Q8VCK6); experiment: inositol monophosphate accumulation assay, mFFA2; assay type: cell-based; conditions: EC80 concentration of C3, wild type mFFA2
T3 construct: eYFP; expressed in transfected cells; host or cells: Flp-In T-REx HEK293, doxycycline-induced
T3 sequence (Q8VCK6 1-330): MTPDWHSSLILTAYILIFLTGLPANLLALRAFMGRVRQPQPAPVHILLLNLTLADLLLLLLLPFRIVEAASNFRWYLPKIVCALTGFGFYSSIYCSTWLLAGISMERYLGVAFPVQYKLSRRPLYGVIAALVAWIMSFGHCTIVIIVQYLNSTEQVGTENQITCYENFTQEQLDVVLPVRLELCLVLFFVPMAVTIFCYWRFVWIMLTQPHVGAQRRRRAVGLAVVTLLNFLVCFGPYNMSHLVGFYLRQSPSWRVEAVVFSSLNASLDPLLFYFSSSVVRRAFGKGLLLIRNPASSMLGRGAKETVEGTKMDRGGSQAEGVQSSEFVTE
Protocol: as §1

[4] = target: T4, Arg^65Lys mFFA2 (Mus musculus, UniProt Q8VCK6, R65K); experiment: inositol monophosphate accumulation assay, Arg65Lys mFFA2; assay type: cell-based; conditions: concentration-dependent
T4 construct: eYFP; expressed in transfected cells
T4 sequence (Q8VCK6 1-330 R65K): T3 sequence (Q8VCK6 1-330) with R65K
Protocol: as §1

[5] = tested on: bovine FFA2; design: method as in Hudson et al., unpublished; conditions: bovine FFA2 has Lys at residue 65; ref Hudson et al., unpublished; cited from earlier work
[6] = target: T1, Lys^65Arg hFFA2; design: method as in PMID 26991104; conditions: not compatible with current results; cited from earlier work
[7] = target: T5, hFFA2 (Homo sapiens, UniProt O15552); experiment: inositol monophosphate accumulation assay, wild type hFFA2; assay type: cell-based; design: expressed in transfected cells; conditions: against an EC80 concentration of compound 1, wild type hFFA2; read-out: pIC50 to inhibit inositol monophosphate response, WT (converted)
T5 sequence (O15552 1-330): T1 sequence (O15552 1-330 K65R) with R65K
Protocol: as §1

[8] = target: T6, Lys^65Ala hFFA2 (Homo sapiens, UniProt O15552, K65A); experiment: inositol monophosphate accumulation assay, Lys65Ala hFFA2; assay type: cell-based; design: NanoLuc Luciferase (N); eYFP; expressed in transfected cells; host or cells: Flp-In T-REx HEK293, doxycycline-induced
T6 sequence (O15552 1-330 K65A): T1 sequence (O15552 1-330 K65R) with R65A
Protocol: as §1

[9] = target: T2, Lys^65Glu hFFA2; experiment: HTRF cAMP inhibition assay, Lys65Glu hFFA2; assay type: cell-based; conditions: compared to wild type hFFA2
Protocol: as §1

[10] = target: T1, Lys^65Arg hFFA2; experiment: bias factor β calculation, Lys65Arg hFFA2 compared to WT; assay type: cell-based; conditions: Pathway 2 TGFα shedding
Protocol: (§2) All data are presented as means ± SEM of at least three independent experiments. Data analysis and curve fitting was carried out using the GraphPad Prism software package version 5.0b (GraphPad, San Diego). […] In case of inhibition experiments with antagonists an equivalent analysis was followed to fit an inverse sigmoidal curve. To perform the statistical analysis of curve parameters, data from multiple experiments were fitted independently and resulting curve fit values were analysed with indicated tests. For radioligand binding data, saturation binding curves were generated by fitting the specific binding, which was obtained by subtracting non-specific from total binding, to a one site specific binding model that allows calculation of Kd values for the radioligand at wild type and mutant receptors. To determine affinity of unlabelled ligands, data obtained in displacement assays were fit to an inverse three parameter sigmoidal curve constrained by radioligand affinity and concentration to allow for Ki calculation. To quantify the signaling bias that mutations of hFFA2 show compared to the wild type receptor, bias factor β was calculated by determining the logarithm of the ratio of relative intrinsic activities for a ligand at two different assays[43].

[11] = target: T2, Lys^65Glu hFFA2; experiment: bias factor β calculation, Lys65Glu hFFA2 compared to WT; assay type: cell-based; conditions: Pathway 2 TGFα shedding
Protocol: as §2

[12] = tested on: Lys^65 to either Ala or Glu in hFFA2; experiment: degree of bias to favor Gi-mediated signalling, Lys65 to either Ala or Glu in hFFA2; assay type: cell-based, human; conditions: vs TGFα shedding
Protocol: as §2

[13] = target: T6, Lys^65Ala hFFA2; conditions: compared with loss of potency in inositol monophosphate assays
Protocol: Membranes were generated from Flp-In T-REx HEK293 cells treated with 100 ng/mL doxycycline to induce expression of receptor of interest. Cells were washed with ice-cold phosphate-buffered saline, removed from dishes by scraping and centrifuged at 3000 rpm for 5 min at 4 °C. Pellets were resuspended in TE buffer (75 mM Tris-HCl, 5 mM EDTA; pH 7.5) containing a protease inhibitor mixture (Roche Applied Science, West Sussex, UK) and homogenized with a 5 ml hand-held homogenizer. This material was centrifuged at 1500 rpm for 5 min at 4 °C and the supernatant was further centrifuged at 50000 rpm for 30 min at 4 °C. The resulting pellet was resuspended in TE buffer and protein content was assessed using a BCA protein assay kit (Pierce, Fisher Scientific, Loughborough, UK).
Binding was initiated by the addition of membranes (5 µg of protein per tube). […] Radioactivity was quantified by liquid scintillation spectrometry.
All data are presented as means ± SEM of at least three independent experiments. […] To perform the statistical analysis of curve parameters, data from multiple experiments were fitted independently and resulting curve fit values were analysed with indicated tests. […]

[14] = target: T6, Lys^65Ala hFFA2; experiment: HTRF cAMP inhibition assay, Lys65Ala hFFA2; assay type: cell-based; design: NanoLuc Luciferase (N); eYFP; expressed in transfected cells; host or cells: Flp-In T-REx HEK293, doxycycline-induced; conditions: compared to wild type hFFA2
Protocol: as §1

[15] = target: T6, Lys^65Ala hFFA2; experiment: bias factor β calculation, Lys65Ala hFFA2 compared to WT; assay type: cell-based; design: NanoLuc Luciferase (N); eYFP; expressed in transfected cells; host or cells: Flp-In T-REx HEK293, doxycycline-induced; conditions: Pathway 2 TGFα shedding
Protocol: as §2

[16] = target: T5, hFFA2; experiment: TGFα shedding assay, wild type hFFA2; assay type: cell-based; design: HA-tag (C); expressed in transfected cells; host or cells: HEK293, parental and CRISPR/Cas9 G protein-deleted lines, transient transfection
Protocol: A mixture of 250 ng AP-TGFα, 100 ng receptor of interest and 50 ng Gα protein were transfected using polyethyleneimine into one well of HEK293 cells cultured in a 12-well plate. Transfected cells were detached with PBS containing 0.05% trypsin and 0.52 mM EDTA and harvested by centrifugation at 190 × g for 5 min. The cell pellet was resuspended in PBS, followed by an incubation for 15 min at room temperature. After a second centrifugation at 190 × g for 5 min, pelleted cells were resuspended in 4 ml Hank’s Balanced Salt Solution (HBSS) containing 5 mM HEPES (pH7.4) per well in a 12-well plate. The cell suspensions were plated at 90 μl per well in a 96-well plate and incubated at 37 °C with 5% CO2 for 30 minutes. After the equilibration period 10 μl per well of 10× concentration of compounds were added and incubated for 1 h at 37 °C with 5% CO2. Plates were centrifuged at 190 × g for 2 min and 80 μL of supernatant was transferred into another 96-well plate. Solution containing p-NPP (10 mM p-NPP, 40 mM Tris-HCl (pH 9.5), 40 mM NaCl, 10 mM MgCl2) was added at 80 μl per well into supernatant-only plates as well as cell plates. […] Detailed assay development and analysis has been described previously.

[17] = tested on: human neutrophils; conditions: cited from earlier work

For `O=C(O)C[C@H](Cc1ccc(C(F)(F)F)cc1)NC(=O)Cc1cccc(Cl)c1` [CATPB, (S)-3-(2-(3-chlorophenyl)acetamido)-4-(4-(trifluoromethyl)phenyl)butanoic acid], the “ability to block compound 1-mediated elevation of inositol monophosphate accumulation at Lys65Arg hFFA2” value ([1]; EC80 concentration of compound 1) was “all but abolished”, the IC50 ([1]; against an EC80 concentration of compound 1, K65R hFFA2, read-out: pIC50 to inhibit inositol monophosphate response, K65R (converted)) was greater than 31.6 µM and the IC50 ([2]; against an EC80 concentration of compound 1, K65E hFFA2, read-out: pIC50 to inhibit inositol monophosphate response, K65E (converted)) was greater than 31.6 µM. For the same molecule, the “effect on C3-stimulated inositol monophosphate production at mFFA2” value [3] was “unaffected”, the “antagonism of C3-mediated inositol monophosphate accumulation at Arg65Lys mFFA2” value [4] was “fully antagonize” and the “binding to bovine FFA2” value [5] was “does not bind CAPTB with high affinity”. For the same molecule, the “antagonism of C3 at Lys65Arg hFFA2” value [6] was “effective and competitive antagonist”, the IC50 [7] was 19.1 nM and the IC50 ([8]; against an EC80 concentration of compound 1, K65A hFFA2, read-out: pIC50 to inhibit inositol monophosphate response, K65A (converted)) was 437 nM.

In the case of `CCC(=O)O` [Compound C3, propionate], the “loss of agonist potency at Lys65Glu hFFA2 vs wild type, inositol monophosphate accumulation” value ([2]; Glu substitution) is reported as “greater than 30 fold”, the “maximal effect in cAMP inhibition at Lys65Glu hFFA2” value [9] is reported as “greater than at wild type hFFA2” and the “β factor (compared to WT) K65R” value ([10]; Pathway 1 GTPγS) is reported as −0.10. The “β factor (compared to WT) K65R” value ([10]; Pathway 1 cAMP) was −0.30, the “β factor (compared to WT) K65E” value ([11]; Pathway 1 GTPγS) was 1.62 and the “β factor (compared to WT) K65E” value ([11]; Pathway 1 cAMP) was 2.10. For the same molecule, the “bias to favor Gi-mediated signalling compared to wild type hFFA2, based on [35S]GTPγS binding studies” value [12] was 41–60 fold, the “bias to favor Gi-mediated signalling compared to wild type hFFA2, based on cAMP inhibition studies” value [12] was 100–125 fold and the “ability to compete for binding with [3H]GLPG0974 at Lys65Ala hFFA2” value [13] was “much less affected”. For the same molecule, the “loss of agonist potency at Lys65Ala hFFA2 vs wild type, inositol monophosphate accumulation” value ([8]; Ala substitution) was “greater than 30 fold”, the “maximal effect in cAMP inhibition at Lys65Ala hFFA2” value [14] was “greater than at wild type hFFA2” and the “β factor (compared to WT) K65A” value ([15]; Pathway 1 GTPγS) was 1.78. The “β factor (compared to WT) K65A” value ([15]; Pathway 1 cAMP) was 2.00, the “potency in TGFα shedding assay (parental HEK293) higher than in inositol monophosphate accumulation assay” value ([16]; wild type hFFA2) was roughly 10 fold and the “TGFα shedding response in HEK293 cells lacking Gαq, Gα11, Gα12, Gα13” value ([16]; wild type hFFA2, all four G protein α subunits eliminated) was “no TGFα shedding response”.

For `CC1(C(=O)N(CCCC(=O)O)Cc2cccc(Cl)c2)CCN1C(=O)c1csc2ccccc12` (stereo not shown) [GLPG0974, 4-[[1-(benzo[b]thiophene-3-carbonyl)-2-methylazetidine-2-carbonyl]-(3-chlorobenzyl)amino]butyric acid], the “block of chemotaxis of human neutrophils” value [17] is listed as “effectively blocked chemotaxis of human neutrophils”.
